In patent publication US10973863B2, “Method for regulating, preventing and/or treating pulmonary injury” (SINPHAR PHARMACEUTICAL CO., LTD., priority 2017, dated 2021):

How the values were obtained:
pro-form MMP-9 = experiment: Western blot: pro-form MMP-9 expression in LPS-treated NR8383 cells; assay type: cell-based, rat; details: 0.01 μg/mL LPS; 6.25 to 50 μg/mL; 24 hours
Experimental: (§1) Rat alveolar macrophage NR8383 cells were divided into six groups and separately cultivated with the following media for 24 hours: • (1) Control group: a macrophage growth medium containing 0.01 μg/mL LPS; • (2) Positive control group: a macrophage growth medium containing 0.01 μg/mL LPS and 1 μM Dex; and • (3) Extract A group (including four sub-groups): a macrophage growth medium containing 0.01 μg/mL LPS and the extract A provided by [preparation example A-2-2], wherein the extract A is present in the four sub-groups at a concentration of 6.25, 12.5, 25 and 50 μg/mL respectively.
(§2) Thereafter, the proteins in the cells of each group were extracted and then subjected to a Western blot to measure the expression level of pro-form MMP-9 (i.e., the zymogen form of MMP-9), active-form MMP-9 and MMP-12. The relative expression level of pro-form MMP-9, active-form MMP-9 and MMP-12 of each group was calculated by using the results of the control group as a basis (i.e., the expression level of control group was served as 1-fold).
(§3) Rat alveolar macrophage NR8383 cells were divided into ten groups and separately cultivated with the following media for 24 hours:
(§4) (1) Control group: a macrophage growth medium containing 0.01 μg/mL LPS;
(§5) (2) Positive control group: a macrophage growth medium containing 0.01 μg/mL LPS and 1 μM Dex; […]

[1] = tested on: TGFβ-induced intracellular accumulation of collagen in myofibroblast WI38 cells; experiment: Picrosirius red staining: TGFβ-induced collagen accumulation in WI38 cells; assay type: cell-based; details: Table 7, 1 ng/mL TGF-β, 24 hours
Source text: As indicated above, the hyperactive expression of MMPs will cause pulmonary injury. Under the most circumstances, the response mechanisms in animals will activate, for example, macrophages will secret TGF-β and TGF-β which can promote the lung fibroblasts to secret collagen, so that the damaged tissues can be recovered. However, the hypersecretion of collagen will also lead to lung fibrosis. To investigate whether FU-LING extracts and its active ingredients are effective in regulating, protecting and/or treating the pulmonary injury-related diseases such as lung fibrosis or not, the Picrosirius red (PSR) staining was conducted as a semi-quantification of collagen, so that the inhibitory rate of FU-LING extract and its active ingredients on the TGFβ-induced intracellular accumulation of collagen in myofibroblast WI38 cells can be determined.
Myofibroblast WI38 cells (purchased from ATCC, product no. CCL75™) were divided into ten groups and separately cultivated with the following media for 48 hours:
(1) Blank group: a myolibroblast growth medium;
(2) Control group: a myofibroblast growth medium containing 1 ng/mL TGF-β (purchased from R&D system);
(3) Positive control group: a myofibroblast growth medium containing 1 ng/mL TGF-β and 200 μg/mL Pirfenidone (abbreviated as “Pir”; purchased from Sigma-Aldrich);
(4) Extract A (including four sub-groups): a myofibroblast growth medium containing 1 ng/mL TGF-β and the extract A provided by [Preparation example A-2-2], wherein the extract A is present in the four sub-groups at a concentration of 12.5, 25, 50 and 100 μg/mL respectively; and
(5) Extract B (including three sub-groups): a myofibroblast growth medium containing 1 ng/ml, TGF-β and the extract B provided by [Preparation example A-2-3], wherein the extract B is present in the […] at a concentration of 12.5, 25 and 50 μg/mL respectively.
Thereafter, the media were replaced by methanol to fix the cells at a temperature of −20° C. for 1 to 2 hours. After that, the cells were washed with PBS, and then stained with 0.1% PSR staining agent (purchased from Sigma-Aldrich) at room temperature for 4 hours. The stained cells were washed with 0.1% acetic acid, and then lysed with 0.1N sodium hydroxide to provide a lysate. The OD540 (i.e., the absorbance at a wavelength of 540 nm) of the lysate was measured. OD540 value of each group represents the content of collagen in each group, reflecting the content of collagen in fibroblast WI38 cells under different circumstances (the relative content of collagen in each group was calculated by serving the result of blank group as 0% and serving the result of control group as 100%).
Myofibroblast WI38 cells were divided into twenty-eight groups and separately cultivated with the following media for 24 hours:
(1) Blank group: a myofibroblast growth medium;
(3) Positive control group; a myofibroblast growth medium containing 1 ng/mL TGF-β and 200 μg/mL Pirfenidone (abbreviated as “Pir”; purchased from Sigma-Aldrich);
(4) Extract C group (including five sub-groups): a myofibroblast growth medium containing 1 ng/mL TGF-β and the extract C provided by [preparation example A-3-2], wherein the extract C is present in the five sub-groups at a concentration of […], 6.25 and 12.5 μg/mL respectively;
(5) Extract D group (including five sub-groups): a myofibroblast growth medium containing 1 ng/mL TGF-β and the extract D provided by [preparation example A-4-2], wherein the extract D is present in the five sub-groups at a concentration of 0.78, 1.56, 3.13, 6.25 and 12.5 μg/mL respectively;
(6) Extract E group (including five sub-groups): a myofibroblast growth medium containing 1 ng/mL TGF-β and the extract E provided by [preparation example A-4-3], wherein the extract E is present in the five sub-groups at a concentration of 0.78, 1.56, 3.13, 6.25 and 12.5 μg/mL respectively; […]

active-form MMP-9 = experiment: Western blot: active-form MMP-9 expression in LPS-treated NR8383 cells; assay type: cell-based, rat; details: 0.01 μg/mL LPS; 6.25, 12.5, 25 and 50 μg/mL; 24 hours
Experimental: as §1, §2, §3, §4, §5

Compound: C=C(CC[C@@H](C(=O)O)[C@H]1[C@H](O)C[C@@]2(C)C3=CC[C@@H](C(=C)C)[C@](C)(CCC(=O)O)C3=CC[C@]12C)C(C)C [PAA, poricoic acid A]
- Expression level of pro-form MMP-9 in comparison with the control group (in words) (pro-form MMP-9): effective in inhibiting
- Relative content of collagen (%) ([1]; 6.25 μg/mL): 82%
- Relative content of collagen (%) ([1]; 12.5 μg/mL): 78%
- Relative content of collagen (%) ([1]; 25 μg/mL): 48%
- Relative content of collagen (%) ([1]; 50 μg/mL): 0%
- Relative content of collagen (%) ([1]; 100 μg/mL): 0%
- Inhibitory rate on active-form MMP-9 (highest over tested concentrations) (active-form MMP-9): up to 44%
